Here are results for two compounds from PMC10167355, “Optimized spirooxindole-pyrazole hybrids targeting the p53-MDM2 interplay induce apoptosis and synergize with doxorubicin in A549 cells” (Scientific Reports, 2023).

One data set has as its system p21. In words: Western blot of p21 level in A549 cells. Particulars: A549. It is filed as cell-based, human. The procedure: (§1) A549 cells were treated with different concentrations of the molecules as indicated. Cell extracts were prepared as described. Ten-20 μg of total proteins were resolved on 4–15% Mini protean TGX precast gels (Bio-Rad) and transferred to nitrocellulose membrane using 1704158 Trans-Blot Turbo Mini NC Transfer Packs (Bio-Rad) in a Trans-Blot Turbo apparatus (Bio-Rad). Membranes were blocked with 5% non-fat dry milk in 0.1% Tween-20 in PBS for 1 h, then incubated for 1 h at room temperature or overnight at 4 °C with the appropriate primary antibody. The following antibodies were employed: anti-p53 (DO-1, sc-126, Santa Cruz Biotechnology, 1:20.000), anti-p21 (2946, Cell Signaling, 1:2000), anti-MDM2 (SMP14, sc-965, Santa Cruz Biotechnology, 1:200), anti β-actin (AC-74, Sigma-Aldrich, 1:30.000); secondary anti-mouse IgG peroxidase conjugate (A9044, Sigma–Aldrich, 1:10.000) and secondary anti-rabbit peroxidase conjugate (A9169, Sigma-Aldrich, 1: 12.000). Detection was carried out with ECL FAST PICO (ECL-1002, Immunological Sciences, Roma, Italy). Chemiluminescence was analysed by Alliance LD, UVITEC Cambridge (Cambridge, UK).

In a further data set the test system is activated PBL. In words: MTT assay on normal PBL activated with PHA and recombinant IL-2. To be noted: Homo sapiens, mean ± SD of 4–6 IC50 values. Format: cell-based. The procedure: (§2) Human tumor cell lines A2780 [ovary, adenocarcinoma, accession number HTL98008, obtained from Interlab Cell Line Collection (ICLC), Genova, Italy], A549 (lung, carcinoma, HTL03001, ICLC), MDA-MB-453 (breast, carcinoma, HTL01013, ICLC), and HepG2 (liver, carcinoma, HB-8065, American Type Culture Collection, Rockville, MA, USA ) were plated at 1.4 × 10^4/ml, 0.65 × 10^4/mL, 4.7 × 10^4/mL, and 1.0 × 10^4/mL, respectively, in 180 μL complete medium (RPMI 1640 for A2780 and A549 and DMEM for MDA-MB-453 and HepG2) into flat-bottomed 96-well microtiter plates. After 6–8 h cells were treated with 20 μL containing five 1:10 fold concentrations of our compounds diluted in FCS containing 3% DMSO. As normal non-cancer cell targets we used peripheral blood lymphocytes obtained from three healthy volunteers, isolated by gradient centrifugation (Lympholyte-H Cell Separation Media, EuroClone, Pero, MI, Italy) and stimulated with 1% phytohemagglutinin and 100 U/ml recombinant IL-2. One week after stimulation cells were ready for use at 15,000/well.
In both cases, after 72 h treatment, the MTT assay was applied as described elsewhere. […] IC100 and IC75 were extrapolated from the mean concentration–response curves.

The test system of another data set is MDM2. In words: Western blot of MDM2 level in A549 cells. Format: cell-based, human. To be noted: for MDM2 modulation, dose–response: A549, 24 h, 0.01, 0.1, 1, 10 µM; for MDM2 level: A549, drug concentration equivalent to IC75 (30 µM), fold over mock. The protocol: as §1
The test system of a further data set is A549 cells. The experiment in a line: Annexin-V-FITC / propidium iodide apoptosis assay. It is filed as cell-based, human. Particulars: A549, compounds at their specific IC75s, three days. The procedure:
The induction of apoptosis was evaluated in A549 cells characterized by wild-type p53 and MDM2 proteins. They were plated at the opportune concentration (see above) into 25 cm^2 flasks in 10 mL complete medium. After 6–8 h the compounds were added at their specific IC75s, as previously calculated by the MTT assay.
All floating and adherent cells were harvested three days later, washed with normal saline buffer, and apoptosis determined by double staining with Annexin-V-FITC and propidium iodide (PI) (rh AnnexinV/FITC Kit, Bender MedSystem GmbH, Vienna, Austria). Briefly, 0.5 × 10^6 cells were resuspended in binding buffer 1× and stained with 5 μL of Annexin-V-FITC. After 10 min incubation 10 μL of PI were added and samples incubated for 5 min. Samples were immediately analyzed using a Flow Cytometer (FACScan, BD Biosciences, Milano, Italy) with dedicated software.

The subject of the next data set is p53. In words: Western blot of p53 level in A549 cells. Particulars: for p53 level: A549, drug concentration equivalent to IC75 (30 µM), fold over mock. Format: cell-based, human. The protocol:
as §1
In general terms: In western blotting, separated proteins are transferred to a membrane and probed.

Data set [1] concerns MDA-MB-453 (breast; mutant p53). In words: MTT antiproliferative assay, MDA-MB-453. It is filed as cell-based. To be noted: Homo sapiens; MDA-MB-453, MTT, 72 h treatment, mean ± SD of 5–6 data. The procedure: as §2
(§3) In both cases, after 72 h treatment, the MTT assay was applied as described elsewhere. The IC50 values were calculated from the analysis of single concentration–response curves, each final value is the mean of 5–6 experiments. IC100 and IC75 were extrapolated from the mean concentration–response curves.
For orientation: Formazan colour is commonly taken as a measure of viable cells.

Another data set has as its system A549 (lung). In words: MTT antiproliferative assay, A549. Format: cell-based. Particulars: Homo sapiens, 72 h treatment, mean ± SD of 5–6 data. The protocol:
as §2, §3

[2] abbreviates: A549, 0.2 µM derivative alone or 14 µM doxorubicin alone.
Setting [3] is: A549, 0.2 µM derivative plus 14 µM doxorubicin.

“Also recorded” adds a separate entry of the source.

Usually melting point stands for the temperature of the solid-liquid transition. As a reminder, the IC50 is the point on the concentration scale where inhibition reaches its midpoint.

The compound `Cc1c(C(=O)C2C(c3ccc(C(F)(F)F)cc3)C3CSCN3C23C(=O)Nc2ccccc23)cnn1-c1ccccc1` (stereo not drawn) [8k, 6'-(5-Methyl-1-phenyl-1H-pyrazole-4-carbonyl)-7'-(4-(trifluoromethyl)phenyl)-1',6',7',7a'-tetrahydro-3'H-spiro[indoline-3,5'-pyrrolo[1,2-c]thiazol]-2-one] yielded a melting point of 138 to 139 °C. Moreover, the “p21 level, single agent” value in the data set on p21 (0.2 µM derivative alone or 14 µM doxorubicin alone) is “did not increase”. For the same compound, the “p21 level, combined treatment compared to doxorubicin alone” value with p21 (0.2 µM derivative plus 14 µM doxorubicin) is recorded as “no further increases”. For the same compound, the IC50 in the data set on activated PBL (PBL A) worked out at 49.8 ± 3.2 µM. In the data set with activated PBL (PBL B), the IC50 is 55.3 ± 1.4 µM. The IC50 in the data set on activated PBL (PBL C) turned out to be 50.9 ± 1.2 µM. In addition, in the data set with MDM2, the “MDM2 modulation, dose–response” value is on record as “induced MDM2 down regulation at any concentration; also recorded: dose-dependent down regulation of MDM2” and the MDM2 level result is “downmodulated MDM2; also recorded: clear down modulation; also recorded: down regulation of MDM2”. Moreover, in the data set on MDM2 (setting [2]), the “MDM2 level, single agent” value is “slight but not significant MDM2 increase”. Further, the “MDM2 level, combined treatment compared to doxorubicin alone” value with MDM2 (setting [3]) was “no further increases”. The apoptotic activity result with A549 cells was “highly significant apoptotic activity; also recorded: considerable high level of apoptosis”. Also, the p53 level entry in the data set on p53 is recorded as “did not induce any changes; also recorded: did not induce p53”. Also, the “p53 level, single agent” value in the data set on p53 (setting [2]) is “did not increase”. Also, the “p53 level, combined treatment compared to doxorubicin alone” value with p53 (setting [3]) is “no further increases”. Besides, it took 21.4 µM to reach half-maximal inhibition in data set [1] (IC50).
In turn, `Cc1c(C(=O)C2C(c3cccc(Br)c3)C3CSCN3C23C(=O)Nc2ccccc23)cnn1-c1ccccc1` (stereo not drawn) [8m, 7'-(3-Bromophenyl)-6'-(5-methyl-1-phenyl-1H-pyrazole-4-carbonyl)-3',6',7',7a'-tetrahydro-1'H-spiro[indoline-3,5'-pyrrolo[1,2-c]thiazol]-2-one] returned a melting point of 132 to 133 °C. Further, in the data set with activated PBL (PBL A), the IC50 amounted to 48.8 ± 4.9 µM. Also, the IC50 in the data set on activated PBL (PBL B) came to 36.1 ± 14.7 µM. In the data set with activated PBL (PBL C), the IC50 was found to be 68.1 ± 23.8 µM. Inhibition in the data set on A549 (lung) was half-maximal at 17.7 µM (IC50). For the same compound, in the data set with MDM2, the “MDM2 modulation, dose–response” value was “dose-dependent down regulation of MDM2” and the MDM2 level entry is given as “downmodulated MDM2; also recorded: clear down modulation; also recorded: down regulation of MDM2”. Besides, the apoptotic activity entry in the data set on A549 cells was “highly significant apoptotic activity; also recorded: considerable high level of apoptosis”. Besides, the p53 level result in the data set with p53 is on record as “did not induce any changes; also recorded: did not induce p53”.
